Measured values: PubChem BioAssay (NCI)
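The compound was tested at five concentrations on cells cultured in 96-well plates, with a 48-hour exposure period. The concentration for 50% growth inhibition is given as GI50. TGI: total growth inhibition.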

How the values were obtained:
Assay in all cases: growth of human tumour cells (NCI), 48 h
OVCAR-8 ovarian = system: OVCAR-8 ovarian
T-47D breast = system: T-47D breast
KM12 colon = system: KM12 colon
UACC-62 melanoma = system: UACC-62 melanoma
786-0 renal = system: 786-0 renal
NCI-H226 lung = system: NCI-H226 lung
MALME-3M melanoma = system: MALME-3M melanoma
SF-268 CNS = system: SF-268 CNS
A498 renal = system: A498 renal
HS 578T breast = system: HS 578T breast

| SMILES | GI50 (OVCAR-8 ovarian) [µM] | TGI (OVCAR-8 ovarian) [µM] | GI50 (T-47D breast) [µM] | TGI (T-47D breast) [µM] | GI50 (KM12 colon) [µM] | TGI (KM12 colon) [µM] | GI50 (UACC-62 melanoma) [µM] | TGI (UACC-62 melanoma) [µM] | GI50 (786-0 renal) [µM] | TGI (786-0 renal) [µM] | GI50 (NCI-H226 lung) [µM] | TGI (NCI-H226 lung) [µM] | GI50 (MALME-3M melanoma) [µM] | TGI (MALME-3M melanoma) [µM] | GI50 (SF-268 CNS) [µM] | TGI (SF-268 CNS) [µM] | GI50 (A498 renal) [µM] | TGI (A498 renal) [µM] | GI50 (HS 578T breast) [µM] | TGI (HS 578T breast) [µM] |
| --- | --- | --- | --- | --- | --- | --- | --- | --- | --- | --- | --- | --- | --- | --- | --- | --- | --- | --- | --- | --- |
| OC(COc1cccc2ccccc12)CN1CCN(c2ccccc2)CC1 (stereo unspecified) | 17.3 | 32.1 | 17.3 | 34.7 | 16.1 | 31 | 14.1 | 28.5 | 17.4 | 32.2 | 14.7 | 29.7 | 15.3 | 31.4 | 16.4 | 31.3 | 13.5 | 26.4 | 15.8 | 47.3 |
| CC(=O)OC[C@]12CC[C@@H]([C@@H](C)C(N)=O)[C@@H]1[C@H]1CC[C@@H]3[C@@]4(C)CC[C@H](OC(C)=O)C(C)(C)[C@@H]4CC[C@@]3(C)[C@]1(C)CC2 | 5.44 | 25.2 | 2.91 | 12.9 | 3.86 | 15.8 | 5.46 | 19.5 | 10.9 | 26.3 | 7.28 | 23.9 | 10.5 | 24.2 | 6.95 | 22.3 | 12.8 | 25.6 | 12.4 | 38.6 |
| O=C1c2ccccc2-c2c1c1ccccc1c(=O)n2CCCN1CCN(CCCn2c3c(c4ccccc4c2=O)C(=O)c2ccccc2-3)CC1 | 15.6 | > 100 | > 100 | > 100 | > 100 | > 100 | > 100 | > 100 | 2.22 | > 32 | > 76.5 | > 100 | > 57.6 | > 100 | 25 | > 100 | > 55.3 | > 100 | > 100 | > 100 |
| COC(=O)c1ccc([N+](=O)[O-])c(O)c1 |  | > 100 |  | > 100 |  | > 100 |  | > 100 |  | > 100 |  | > 100 |  | > 100 |  | > 100 |  | > 100 |  | > 100 |
| CCC1CC(=O)N(SCC(N)C(=O)O)C1=O (stereo unspecified) |  | > 100 |  | > 100 |  | > 100 |  | > 100 |  | > 100 |  | > 100 |  | > 100 |  | > 100 |  | > 100 |  | > 100 |
| C=C1CCC2C3(C)COC(c4ccc(SC)cc4)OC3CCC2(C)C1C/C=C1/C(=O)OCC1O (stereo unspecified) | 2.14 | 6.56 | 2.53 | 13.7 | 5.21 | 17.6 | 5.45 | 20.4 | 6.7 | 19.2 | 7.85 | 25.7 | 14.9 | 32.1 | 6.8 | 19.9 | 8.64 | 22.4 | 5.17 | 17 |
| O=C(O)CCCCn1cnc2c(=S)nc[nH]c21 |  | > 100 |  | > 100 |  | > 100 |  | > 100 |  | > 100 |  | > 100 |  | > 100 |  | > 100 |  | > 100 |  | > 100 |
| O=C1/C(=C\c2coc3ccccc3c2=O)c2ccccc2N1c1c(Cl)cccc1Cl | 5.47 | 48.8 | 3.05 | 31.1 | 3.06 | 68.5 | 2.13 | > 100 | 3.1 | 33.7 | 20.7 | > 100 | 2.48 | 13 | 3.41 | > 100 | 4.35 | > 100 | 9.05 | > 100 |
| COc1ccc(C2=C(c3cc(OC)c(OC)c(OC)c3)C(=O)CC2)cc1 | 0.392 | > 100 | 24.6 | > 100 | 0.0719 |  | 0.0812 | > 100 | 0.425 | > 100 | 0.425 | > 22.6 | > 100 | > 100 | 0.668 | > 33.8 | 0.0403 | 0.429 | 0.0827 |  |
| Cc1nc(/N=C(\N)NC(=O)Nc2ccccc2Cl)sc1C | 0.592 | > 40.2 | 0.519 | > 100 | 0.405 | > 100 | 0.488 | > 100 | 0.639 | 3.25 | 1.15 | 14.9 | 0.643 | 4.79 | 1.35 | > 100 | 0.249 | 1.1 | 0.548 | 5.55 |
| CC1OC(OC2CC(O)C3(CO)C4C(O)CC5(C)C(C6=CC(=O)OC6)CCC5(O)C4CCC3(O)C2)C(O)C(O)C1O (stereo unspecified) | < 0.0199 | 0.046 | < 0.0121 | 0.0342 | 0.0249 | 0.217 | 0.0381 | 0.173 | < 0.0129 | < 0.0179 | 0.0167 | 0.0646 | < 0.0131 | 0.0172 | < 0.0142 | 0.0236 | < 0.0183 | 0.102 | < 0.0155 | 0.304 |
| O=S1(=O)CS(=O)(=O)OCCCO1 |  | > 100 |  | > 100 |  | > 100 |  | > 100 |  | > 100 |  | > 100 |  | > 100 |  | > 100 |  | > 100 |  | > 100 |
| COc1ccc(/C=C\c2cc(OC)c(OC)c(OC)c2)cc1OC(=O)c1cccc(Cn2cc(CCOC(=O)c3cccc(Cn4nnc5c4C(=O)c4ccccc4C5=O)c3)nn2)c1 | < 0.01 | > 44.8 | 51.6 | > 100 | < 0.0133 | > 77.6 |  | 24.8 | 0.101 | 17.5 | 0.15 | > 37.1 | 0.178 | > 71.3 | 0.0395 | 35 | < 0.01 |  | < 0.01 | 21.4 |
| COc1c(CNC(=O)CCl)cc2[nH]c(C)cc2c1CNC(=O)CCl | 4.73 | 60.4 | 3.55 | 23.1 | 6.08 | 19.4 | 1.28 | 4.11 | 3.8 | 15.4 | 9.2 | 73.7 | 16.1 | 50.3 | 3.44 | 21.7 | 4.29 | 19.1 | 4.97 | 76.8 |
